Measurements reported in patent US9216999B2, “Substituted pyrrolo[2,3-h][1,6]naphthyridines and compositions thereof as JAK inhibitors” (priority 2011, dated 2015).
Read-outs that look alike come from different tables or passages of the source.

Columns and labels:
Assay type in all cases: biochemical
JAK1 = JAK1 (Homo sapiens (Human), UniProt P23458); test: Enzyme assay (Assay Example^a 1), JAK1; settings: ATP 100 μM
JAK2 = JAK2 (Homo sapiens (Human), UniProt O60674); test: Enzyme assay (Assay Example^a 1), JAK2
JAK3 = JAK3 (Homo sapiens (Human), UniProt P52333); test: Enzyme assay (Assay Example^a 1), JAK3
Tyk2 = Tyk2 (Homo sapiens (Human), UniProt P29597); test: Enzyme assay (Assay Example^a 1), Tyk2; settings: ATP 100 μM
Tyk2, sequence (P29597 whole entry): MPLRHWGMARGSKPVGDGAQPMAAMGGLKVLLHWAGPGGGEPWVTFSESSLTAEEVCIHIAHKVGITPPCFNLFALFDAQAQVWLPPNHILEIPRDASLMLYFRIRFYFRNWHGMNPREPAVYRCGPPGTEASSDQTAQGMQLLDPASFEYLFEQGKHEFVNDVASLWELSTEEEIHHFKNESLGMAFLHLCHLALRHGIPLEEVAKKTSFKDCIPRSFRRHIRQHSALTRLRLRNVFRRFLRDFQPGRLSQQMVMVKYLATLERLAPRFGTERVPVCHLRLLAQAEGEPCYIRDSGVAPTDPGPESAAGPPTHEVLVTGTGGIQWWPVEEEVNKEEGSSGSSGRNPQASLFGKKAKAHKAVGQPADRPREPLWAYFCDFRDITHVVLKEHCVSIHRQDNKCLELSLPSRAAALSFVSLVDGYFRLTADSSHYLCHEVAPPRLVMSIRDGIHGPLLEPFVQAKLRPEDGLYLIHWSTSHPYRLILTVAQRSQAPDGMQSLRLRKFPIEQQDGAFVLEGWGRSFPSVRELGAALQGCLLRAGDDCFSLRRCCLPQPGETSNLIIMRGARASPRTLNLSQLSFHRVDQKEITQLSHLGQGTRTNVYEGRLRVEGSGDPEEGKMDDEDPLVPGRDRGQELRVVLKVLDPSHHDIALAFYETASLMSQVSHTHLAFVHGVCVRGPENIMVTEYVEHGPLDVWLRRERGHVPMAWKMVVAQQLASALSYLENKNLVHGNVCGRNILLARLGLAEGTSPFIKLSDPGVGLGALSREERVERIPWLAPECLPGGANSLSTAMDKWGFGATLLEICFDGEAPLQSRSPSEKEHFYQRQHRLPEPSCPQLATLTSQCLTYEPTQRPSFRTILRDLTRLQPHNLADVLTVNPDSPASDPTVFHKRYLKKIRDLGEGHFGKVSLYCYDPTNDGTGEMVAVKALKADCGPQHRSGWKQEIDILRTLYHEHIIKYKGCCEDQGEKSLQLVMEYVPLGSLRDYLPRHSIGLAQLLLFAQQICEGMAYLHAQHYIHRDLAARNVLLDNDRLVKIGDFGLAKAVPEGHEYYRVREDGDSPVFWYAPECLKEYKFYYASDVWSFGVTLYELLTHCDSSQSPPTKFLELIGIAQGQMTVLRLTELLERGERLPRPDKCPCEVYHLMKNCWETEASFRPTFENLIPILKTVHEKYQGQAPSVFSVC

JAK3, sequence (P52333 whole entry): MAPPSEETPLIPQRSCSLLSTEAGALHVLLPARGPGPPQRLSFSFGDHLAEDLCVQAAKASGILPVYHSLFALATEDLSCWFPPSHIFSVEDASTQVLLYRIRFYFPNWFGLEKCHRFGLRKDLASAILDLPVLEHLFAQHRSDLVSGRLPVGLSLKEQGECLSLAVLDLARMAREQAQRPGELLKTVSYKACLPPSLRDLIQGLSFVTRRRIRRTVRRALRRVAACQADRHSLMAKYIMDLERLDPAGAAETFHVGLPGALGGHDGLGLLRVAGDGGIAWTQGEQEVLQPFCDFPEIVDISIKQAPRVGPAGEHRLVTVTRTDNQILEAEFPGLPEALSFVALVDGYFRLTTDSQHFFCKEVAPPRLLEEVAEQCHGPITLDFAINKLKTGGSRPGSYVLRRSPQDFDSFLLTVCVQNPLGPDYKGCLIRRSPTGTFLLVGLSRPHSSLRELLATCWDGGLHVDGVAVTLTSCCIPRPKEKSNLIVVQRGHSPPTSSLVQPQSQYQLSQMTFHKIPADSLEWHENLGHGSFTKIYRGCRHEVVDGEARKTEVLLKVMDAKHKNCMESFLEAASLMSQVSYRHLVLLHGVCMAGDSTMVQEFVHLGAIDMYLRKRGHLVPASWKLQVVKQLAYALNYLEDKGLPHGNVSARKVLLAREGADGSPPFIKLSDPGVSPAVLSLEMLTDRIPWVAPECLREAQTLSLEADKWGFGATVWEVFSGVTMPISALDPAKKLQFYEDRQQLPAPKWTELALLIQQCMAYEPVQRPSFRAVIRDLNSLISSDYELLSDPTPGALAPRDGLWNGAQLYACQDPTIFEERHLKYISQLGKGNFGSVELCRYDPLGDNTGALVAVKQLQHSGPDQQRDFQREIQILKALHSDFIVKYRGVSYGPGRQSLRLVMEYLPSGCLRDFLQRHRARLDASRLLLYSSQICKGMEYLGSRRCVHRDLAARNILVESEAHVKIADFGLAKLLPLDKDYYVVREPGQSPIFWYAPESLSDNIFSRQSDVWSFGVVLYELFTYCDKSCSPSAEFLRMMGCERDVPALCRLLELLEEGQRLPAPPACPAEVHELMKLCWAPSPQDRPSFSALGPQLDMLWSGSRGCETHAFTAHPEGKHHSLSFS

Row | SMILES | IC50 (JAK1) | IC50 (JAK2; ATP 100 μM) | IC50 (JAK3; ATP 100 μM) | IC50 (Tyk2) | IC50 (JAK1; Table^a 154) | IC50 (JAK2; ATP 100 μM, Table^a 154) | IC50 (Tyk2; Table^a 154) | IC50 (JAK2) | IC50 (JAK3; ATP 100 μM, Table^a 154) | IC50 (JAK3)
1 | N#CC(NC(=O)[C@H]1CC[C@H](c2nnn3cnc4[nH]ccc4c23)CC1)c1ccccc1 (stereo partly drawn) [compound 351, trans-N-[cyano(phenyl)methyl]-4-(7H-pyrrolo[3,2-e][1,2,3]triazolo[1,5-c]pyrimidin-1-yl)cyclohexanecarboxamide] | 0.012 µM | 0.089 µM | > 1 µM | > 1 µM | – | – | – | – | – | –
2 | Cc1ccccc1-c1nnn2cnc3[nH]ccc3c12 [compound 5] | 0.02 µM | 0.13 µM | 0.26 µM | 0.13 µM | – | – | – | – | – | –
3 | N#CC1CC12CCC(c1nnn3cnc4[nH]ccc4c13)CC2 (centres unmarked) [compound 444, 6-(7H-Pyrrolo[3,2-e][1,2,3]triazolo[1,5-c]pyrimidin-1-yl)spiro[2.5]octane-1-carbonitrile] | 0.0034 µM | 0.009 µM | 0.25 µM | 0.045 µM | – | – | – | – | – | –
4 | N#Cc1ccc(CCN[C@H]2CC[C@H](c3nnn4cnc5[nH]ccc5c34)CC2)cc1 [391b, 4-(2-{[trans-4-(7H-pyrrolo[3,2-e][1,2,3]triazolo[1,5-c]pyrimidin-1-yl)cyclohexyl]amino}ethyl)benzonitrile] | 0.018 µM | 0.39 µM | > 1 µM | 0.58 µM | – | – | – | – | – | –
5 | O=C(OCc1ccccc1)N1CCCC(c2nnn3cnc4[nH]ccc4c23)C1 (racemic) [compound 14] | – | – | – | – | 0.021 µM | 0.11 µM | 2.2 µM | – | – | –
6 | O=C(N[C@H]1CC[C@H](c2nnn3cnc4[nH]ccc4c23)CC1)OCc1ccccc1 [compound 60] | – | – | – | – | 0.0051 µM | – | 4.2 µM | 0.032 µM | > 1 µM | –
7 | CC(=O)N[C@@H]1CCN(C[C@H]2CC[C@H](c3nnn4cnc5[nH]ccc5c34)CC2)C1 [compound 318, N-((R)-1-{[trans-4-(7H-pyrrolo[3,2-e][1,2,3]triazolo[1,5-c]pyrimidin-1-yl)cyclohexyl]methyl}pyrrolidin-3-yl)acetamide] | 0.0048 µM | 0.057 µM | > 1 µM | 0.61 µM | – | – | – | – | – | –
8 | N#Cc1ccc(CN2CCC(c3nnn4cnc5[nH]ccc5c34)CC2)cc1F [compound 222, 4-{[4-(7H-pyrrolo[3,2-e][1,2,3]triazolo[1,5-c]pyrimidin-1-yl)piperidin-1-yl]methyl}-2-fluorobenzonitrile] | 0.0035 µM | 0.033 µM | 0.32 µM | 0.77 µM | – | – | – | – | – | –
9 | CC(C)(C)OC(=O)N1CC[C@H](NC[C@H]2CC[C@H](c3nnn4cnc5[nH]ccc5c34)CC2)C1 [compound 337, (S)-tert-butyl 3-({[trans-4-(7H-pyrrolo[3,2-e][1,2,3]triazolo[1,5-c]pyrimidin-1-yl)cyclohexyl]methyl}amino)pyrrolidine-1-carboxylate] | 0.029 µM | 0.34 µM | > 1 µM | 0.51 µM | – | – | – | – | – | –
10 | C[C@H](O)CNC[C@H]1CC[C@H](c2nnn3cnc4[nH]ccc4c23)CC1 [compound 184, (S)-1-({[trans-4-(7H-pyrrolo[3,2-e][1,2,3]triazolo[1,5-c]pyrimidin-1-yl)cyclohexyl]methyl}amino)propan-2-ol] | – | – | – | – | 0.0035 µM | 0.042 µM | 0.087 µM | – | 0.58 µM | –
11 | N#CCCNC(=O)[C@H]1CC[C@H](c2nnn3cnc4[nH]ccc4c23)CC1 [compound 356, trans-N-(2-cyanoethyl)-4-(7H-pyrrolo[3,2-e][1,2,3]triazolo[1,5-c]pyrimidin-1-yl)cyclohexanecarboxamide] | 0.0036 µM | 0.036 µM | > 1 µM | 0.16 µM | – | – | – | – | – | –
12 | O=S(=O)(C[C@H]1CC[C@H](c2nnn3cnc4[nH]ccc4c23)CC1)NC1CC1 [compound 417, 1-[trans-4-(7H-Pyrrolo[3,2-e][1,2,3]triazolo[1,5-c]pyrimidin-1-yl)cyclohexyl]-N-cyclopropylmethanesulfonamide] | 0.0078 µM | 0.026 µM | 0.38 µM | 0.42 µM | – | – | – | – | – | –
13 | O=c1[nH]c(C2CCCCC2)c2c3cc[nH]c3ncn12 [compound 9] | 0.03 µM | 0.046 µM | – | 0.078 µM | – | – | – | – | – | 0.43 µM
14 | N#Cc1ccc(NC[C@H]2CC[C@H](c3nnn4cnc5[nH]ccc5c34)CC2)cc1Cl [compound 247, 4-({[trans-4-(7H-pyrrolo[3,2-e][1,2,3]triazolo[1,5-c]pyrimidin-1-yl)cyclohexyl]methyl}amino)-2-chlorobenzonitrile] | 0.013 µM | 0.09 µM | – | > 1 µM | – | – | – | – | – | –
15 | O=C(NCC(O)(c1ccccc1)C(F)(F)F)[C@H]1CC[C@H](c2nnn3cnc4[nH]ccc4c23)CC1 (stereo partly drawn) [compound 346, trans-4-(7H-Pyrrolo[3,2-e][1,2,3]triazolo[1,5-c]pyrimidin-1-yl)-N-(3,3,3-trifluoro-2-hydroxy-2-phenylpropyl)cyclohexanecarboxamide] | 0.0051 µM | 0.06 µM | > 1 µM | > 1 µM | – | – | – | – | – | –
16 | FC(F)(F)c1ccc(CN[C@H]2CC[C@H](c3nnn4cnc5[nH]ccc5c34)CC2)cc1 [138b] | – | – | – | – | 0.0043 µM | 0.043 µM | 0.046 µM | – | 0.4 µM | –

Row | SMILES | IC50 (JAK1) | IC50 (JAK2; ATP 100 μM) | IC50 (JAK3; ATP 100 μM) | IC50 (Tyk2) | IC50 (JAK1; Table^a 154) | IC50 (JAK2; ATP 100 μM, Table^a 154) | IC50 (Tyk2; Table^a 154) | IC50 (JAK2) | IC50 (JAK3; ATP 100 μM, Table^a 154) | IC50 (JAK3)
17 | O[C@H]1CC[C@H](NC[C@H]2CC[C@H](c3nnn4cnc5[nH]ccc5c34)CC2)CC1 [compound 305, trans-4-({[trans-4-(7H-pyrrolo[3,2-e][1,2,3]triazolo[1,5-c]pyrimidin-1-yl)cyclohexyl]methyl}amino)cyclohexanol] | 0.046 µM | 0.29 µM | > 1 µM | > 1 µM | – | – | – | – | – | –
18 | Cc1ccc(CNC[C@H]2CC[C@H](c3nnn4cnc5[nH]ccc5c34)CC2)s1 [compound 106] | – | – | – | – | 0.0019 µM | 0.041 µM | 0.0036 µM | – | – | 0.28 µM
19 | Fc1ccc(CCN[C@H]2CC[C@H](c3nnn4cnc5[nH]ccc5c34)CC2)cc1 [201b, trans-N-(4-fluorophenethyl)-4-(7H-pyrrolo[3,2-e][1,2,3]triazolo[1,5-c]pyrimidin-1-yl)cyclohexanamine] | – | – | – | – | 0.0039 µM | 0.066 µM | 0.1 µM | – | 0.41 µM | –
20 | Fc1ccc(NC[C@H]2CC[C@H](c3nnn4cnc5[nH]ccc5c34)CC2)cc1C(F)(F)F [compound 251, N-{[trans-4-(7H-pyrrolo[3,2-e][1,2,3]triazolo[1,5-c]pyrimidin-1-yl)cyclohexyl]methyl}-4-fluoro-3-(trifluoromethyl)aniline] | 0.031 µM | 0.2 µM | > 1 µM | > 1 µM | – | – | – | – | – | –
21 | c1cc2c(ncn3nnc([C@H]4CC[C@H](CNC56CC(C5)C6)CC4)c23)[nH]1 [compound 316, N-{[trans-4-(7H-pyrrolo[3,2-e][1,2,3]triazolo[1,5-c]pyrimidin-1-yl)cyclohexyl]methyl}bicyclo[1.1.1]pentan-1-amine] | 0.013 µM | 0.099 µM | > 1 µM | 0.59 µM | – | – | – | – | – | –
22 | OC(CN[C@H]1CC[C@H](c2nnn3cnc4[nH]ccc4c23)CC1)(c1ccc(F)cc1)C(F)(F)F (mixture of isomers) [200b, 3-{[trans-4-(7H-pyrrolo[3,2-e][1,2,3]triazolo[1,5-c]pyrimidin-1-yl)cyclohexyl]amino}-1,1,1-trifluoro-2-(4-fluorophenyl)propan-2-ol] | – | – | – | – | 0.0025 µM | 0.032 µM | 0.24 µM | – | – | –
23 | N#Cc1ccc(NC[C@H]2CC[C@H](c3nnn4cnc5[nH]ccc5c34)CC2)c2ccccc12 [compound 248, 4-({[trans-4-(7H-pyrrolo[3,2-e][1,2,3]triazolo[1,5-c]pyrimidin-1-yl)cyclohexyl]methyl}amino)-1-naphthonitrile] | 0.041 µM | 0.14 µM | > 1 µM | > 1 µM | – | – | – | – | – | –
24 | FC1(F)Oc2ccc(CN3CCC(c4nnn5cnc6[nH]ccc6c45)CC3)cc2O1 [compound 227, 1-{1-[(2,2-Difluorobenzo[d][1,3]dioxol-5-yl)methyl]piperidin-4-yl}-7H-pyrrolo[3,2-e][1,2,3]triazolo[1,5-c]pyrimidine] | 0.0025 µM | 0.021 µM | 0.079 µM | 0.57 µM | – | – | – | – | – | –
25 | N#C/C(=C\N1CCC(c2nnn3cnc4[nH]ccc4c23)CC1)c1ccccc1 [compound 230, (Z)-3-[4-(7H-pyrrolo[3,2-e][1,2,3]triazolo[1,5-c]pyrimidin-1-yl)piperidin-1-yl]-2-phenylacrylonitrile] | 0.035 µM | 0.13 µM | > 1 µM | > 1 µM | – | – | – | – | – | –
26 | FC1(F)CCC(c2nnn3cnc4[nH]ccc4c23)CC1 [compound 64] | – | – | – | – | 0.033 µM | 0.12 µM | 0.31 µM | – | – | –
27 | c1cc2c(ncn3nnc(C4CCCCCC4)c23)[nH]1 [compound 66] | – | – | – | – | 0.0033 µM | 0.013 µM | 0.027 µM | – | – | –
28 | OC(CN[C@H]1CC[C@H](c2nnn3cnc4[nH]ccc4c23)CC1)(c1ccc(Cl)cc1)C(F)(F)F (mixture of isomers) [199b, 3-((trans-4-(7H-pyrrolo[3,2-e][1,2,3]triazolo[1,5-c]pyrimidin-1-yl)cyclohexyl)amino)-2-(4-chlorophenyl)-1,1,1-trifluoropropan-2-ol] | – | – | – | – | 0.0035 µM | 0.035 µM | 0.44 µM | – | – | –
29 | O=S(=O)(C[C@H]1CC[C@H](c2nnn3cnc4[nH]ccc4c23)CC1)c1ccccc1 [compound 364, 1-{trans-4-[(phenylsulfonyl)methyl]cyclohexyl}-7H-pyrrolo[3,2-e][1,2,3]triazolo[1,5-c]pyrimidine] | 0.0057 µM | 0.011 µM | – | – | – | – | – | – | – | –
30 | OC(CNC[C@H]1CC[C@H](c2nnn3cnc4[nH]ccc4c23)CC1)(c1ccccc1)C(F)(F)F (mixture of isomers) [compound 172, 3-({[trans-4-(7H-pyrrolo[3,2-e][1,2,3]triazolo[1,5-c]pyrimidin-1-yl)cyclohexyl]methyl}amino)-1,1,1-trifluoro-2-phenylpropan-2-ol] | – | – | – | – | 0.013 µM | 0.093 µM | 0.63 µM | – | – | –
31 | c1cc2c(ncn3cnc(C4CCCCC4)c23)[nH]1 [compound 2] | 0.014 µM | 0.017 µM | – | – | – | – | – | – | – | –
